Here are results for one compound from US20180071298A1, “METHODS FOR TREATING ALZHEIMER'S DISEASE” (Reviva Pharmaceuticals, Inc., priority 2015, published 2018).

The target of assay [1] is T1, Human recombinant 5-HT1A (Homo sapiens, UniProt P08908).
T1 construct: expressed in transfected cells
T1 sequence (P08908 1-422): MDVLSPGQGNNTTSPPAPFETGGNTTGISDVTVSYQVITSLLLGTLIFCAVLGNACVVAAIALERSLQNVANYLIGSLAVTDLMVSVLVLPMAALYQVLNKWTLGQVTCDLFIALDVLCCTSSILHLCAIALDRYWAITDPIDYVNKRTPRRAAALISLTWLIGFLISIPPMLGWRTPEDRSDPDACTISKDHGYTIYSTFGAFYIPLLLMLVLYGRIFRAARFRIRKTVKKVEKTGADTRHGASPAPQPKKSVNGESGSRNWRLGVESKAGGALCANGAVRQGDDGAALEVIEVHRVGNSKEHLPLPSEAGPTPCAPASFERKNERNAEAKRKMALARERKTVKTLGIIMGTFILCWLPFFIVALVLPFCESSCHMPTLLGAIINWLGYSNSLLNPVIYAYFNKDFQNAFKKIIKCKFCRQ
Kind of assay: Serotonin 5HT1A radioligand binding assay. The following applies: [3H]-8-OH-DPAT. The source says:
Serotonin, 5HT1A Radioligand Binding Assay
Receptor Source: Human recombinant 5-HT1A expressed mammalian cells
Radioligand: [^3H]-8-OH-DPAT (221 Ci/mmol)
Control Compound: 8-OH-DPAT

Assay [2] concerns the target Human Cortex or Human recombinant 5-HT2A (Homo sapiens, UniProt P28223). The experiment in a line: Serotonin 5HT2A radioligand binding assay. Conditions: [3H]-Ketanserin.

Sequence of Human Cortex or Human recombinant 5-HT2A (P28223 whole entry): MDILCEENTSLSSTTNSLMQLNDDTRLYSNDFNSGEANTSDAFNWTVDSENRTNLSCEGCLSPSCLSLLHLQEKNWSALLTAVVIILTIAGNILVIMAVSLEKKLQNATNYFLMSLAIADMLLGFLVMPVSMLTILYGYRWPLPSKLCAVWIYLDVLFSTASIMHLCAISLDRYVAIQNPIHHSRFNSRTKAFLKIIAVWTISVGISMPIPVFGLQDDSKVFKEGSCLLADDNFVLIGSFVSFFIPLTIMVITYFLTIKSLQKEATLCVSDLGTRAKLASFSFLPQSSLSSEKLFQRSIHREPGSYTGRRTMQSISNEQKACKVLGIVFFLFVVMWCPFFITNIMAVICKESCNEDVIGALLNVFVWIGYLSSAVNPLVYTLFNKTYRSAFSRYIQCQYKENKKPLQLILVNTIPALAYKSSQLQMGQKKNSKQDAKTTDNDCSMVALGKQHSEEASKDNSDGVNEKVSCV

On to `O=C1COc2ccc(OCCCCN3CCN(c4cccc(Cl)c4Cl)CC3)cc2N1` [Compound A, 6-(4-(4-(2,3-dichlorophenyl)piperazin-1-yl)butoxy)-2H-benzo[b][1,4]oxazin-3(-4H)-one], for which the Ki in assay [1] is 0.65 nM. For the same compound, the “Ki, Serotonin 5-HT2A” value in assay [2] is on record as 111 nM.
